Measurements reported in patent US20040039266A1, “Apparatus and method for measurement of biological structures” (priority 2000, published 2004).

Columns and labels:
[1] = system: 3rd order mesenteric arteries; test: Absorption spectroscopy of agonist-induced vasoconstriction in pressurised rat mesenteric arteries; conditions: increasing concentrations; normotensive male Wistar rat arteries, 60 mmHg, 37° C., PSS
Description: 3rd order mesenteric arteries from normotensive male Wistar rats were set up in two perfusion chambers in normal physiological salt solution (PSS), at 37° C. and gassed with 95% O2/5% CO2. The vessels were pressurised to 60 mmHg and allowed to equilibrate for 30 minutes. Thereafter, one vessel acted as a control and the other vessel received increasing concentrations of the thromboxane A2 mimetic, U46619. Transmission spectra were recorded at one second intervals and analysed according to the methods described above.
The optical extinction model described above was used to accurately and continuously measure lumen diameter.

[2] = system: NOS; test: Functional detection of NOS transfection in mouse mesenteric arteries by absorption spectroscopy
From the text: Mouse 1st order mesenteric arteries are dissected out and maintained in Optimem I supplemented with 10% foetal bovine serum. cDNAs (for NOS) inserted into appropriate plasmids are mixed with LipofectAMINE according to the manufacturers instructions. Two arteries are set up in separate perfusion chambers; the first tissue (A) acts as a control (receives LipofectAMINE and plasmids without the cDNA insert), the second tissue (B) receives LipofectAMINE with plasmids containing the NOS cDNA insert. The arteries are exposed to the appropriate transfection solutions for 8 hours.
After 8 hours, the unit switches automatically and perfuses the vessels with normal PSS. Analysis of the lumen diameter via absorption spectroscopy begins, providing continual information on the contractile state of the artery.
Functional detection of NOS activity is achieved by way of a two-stage protocol. Firstly, concentration-response curves to ACh are conducted in both vessels. During the concentration-response curve, changes in the state of the blood vessels are continuously monitored by absorption spectroscopy. ACh selectively activates expressed NOS synthase and causes release of the vasodilator nitric oxide (NO). […] The control vessel should display little vasodilation to ACh, as NOS cDNA was not transfected in this tissue.
Both vessels are then perfused with normal PSS for thirty minutes. […]

CCCCC[C@H](O)/C=C/[C@@H]1[C@@H](C/C=C\CCCC(=O)O)[C@H]2CO[C@@H]1C2 [U46619]
vasoconstriction (change in lumen diameter) detected via shifts in transmission spectra [1]: vasoconstriction was detected

COC(=O)[C@@H](N)CCCNC(=N)N[N+](=O)[O-] [L-NAME]
effect on ACh responses (concentration response curve repeated in presence of inhibitor) ([2]; NOS cDNA-transfected mouse mesenteric artery): abolish further responses to ACh

CC(=O)OCC[N+](C)(C)C [ACh]
response of NOS cDNA-transfected blood vessel to ACh ([2]; concentration-response curve, NOS-knockout mouse 1st order mesenteric artery after 8 hours transfection): vasodilation
